In US20240246905A1 (University of Leicester, priority 2021, published 2024):

Assays:
MRSA 252 [1] = assay: Disc diffusion (Kirby-Bauer), zone of inhibition; type: cell-based, Staphylococcus aureus; conditions: 500 μg/mL, '/' = no zone
In short: (§1)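 Zones of inhibition recorded after 24 h at 37 °C on Mueller-Hinton agar. Agar was inoculated with 1 in 200 diluted 18 h broth cultures, and discs carried 50 μL of antibiotic. Method follows CLSI 2017 disc diffusion.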

MSSA 476 [2] = assay: Disc diffusion (Kirby-Bauer), zone of inhibition; type: cell-based, Staphylococcus aureus; conditions: 500 μg/mL, '/' = no zone
In short: as §1

MRSA 252 [3] = assay: MIC, broth micro-dilution; type: cell-based, Staphylococcus aureus
In short: (§2)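 S. aureus cultures grown 18 h in TSB were used to inoculate twofold antibiotic series in TSB at 5×10^5 CFU/mL, per CLSI guidelines. Growth curves read by optical density at 12-min intervals for 18 h at 37 °C were fitted sigmoidally to calculate MIC.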

MSSA 476 [4] = assay: MIC, broth micro-dilution; type: cell-based, Staphylococcus aureus
In short: as §2

HEK293 cells = assay: Cytotoxicity assay, resazurin (CO-ADD)
In short: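 HEK293 cells in DMEM with 10% FBS were exposed to compounds at a single concentration of 32 μg/mL for 20 h at 37° C, 5% CO2. Viability read by resazurin fluorescence (2.3 μg/mL final, 3 h; F560/590). CC50 from sigmoidal dose-response fitting.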

red blood cells = assay: Hemolysis assay (CO-ADD); type: cell-based; conditions: 32 μg/mL highest concentration tested
Text: A problem often encountered by emerging drugs is hemolysis, also known as drug-induced immune hemolytic anemia.

[5] = test system: various Staphylococcus aureus strains; assay: Disc diffusion, Staphylococcus aureus strain study; type: cell-based; conditions: 500 μg/mL
In short: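 Kirby-Bauer disc diffusion on Mueller-Hinton agar spread with 1:200 dilution of overnight S. aureus cultures (TSB, 37 °C). Discs loaded with 50 μL of compound at 500 μg/mL; zone of inhibition recorded after 24 h at 37 °C.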

Escherichia coli DH5α = assay: Disc diffusion (Kirby-Bauer), zone of inhibition; type: cell-based; conditions: Escherichia coli DH5α; 500 μg/mL; '/' = no zone
In short: as §1

[6] = test system: Staphylococcus aureus 15981; assay: Disc diffusion (Kirby-Bauer), zone of inhibition; type: cell-based; conditions: Staphylococcus aureus 15981; 500 μg/mL; '/' = no zone
In short: as §1

Substance: (2-Isocyanovinyl)-4-acetaamido benzene [Compound 22]
- Zone of inhibition (MRSA 252 [1]): 20 mm
- Zone of inhibition (MSSA 476 [2]): 16 mm
- MIC (MRSA 252 [3]): 55 µg/mL
- MIC (MSSA 476 [4]): 172 µg/mL
- Concentration toxic to HEK 293 cells (HEK293 cells; HEK 293): >32000 ng/mL
- toxicity towards the HEK293 cell line (in words) (HEK293 cells; set concentration of 32 μg/mL): no toxicity
- Hemolytic activity (HC10) (red blood cells): >32 µg/mL
- Zone of inhibition ([5]; strain ASARM 61): 18 mm
- Zone of inhibition ([5]; strain ASARM 70): 18 mm
- Zone of inhibition ([5]; strain ASARM 71): 20 mm
- Zone of inhibition ([5]; strain ASARM 72): 22 mm
- Zone of inhibition ([5]; strain ASARM 73): 20 mm
- Zone of inhibition ([5]; strain ASARM 75): 22 mm
- Zone of inhibition ([5]; strain ASARM 76): 26 mm
- Zone of inhibition ([5]; strain ASARM 77): 24 mm
- Zone of inhibition ([5]; strain ASARM 79): 22 mm
- Zone of inhibition ([5]; strain ASARM 80): 26 mm
- Zone of inhibition ([5]; strain EOE 3): 20 mm
- Zone of inhibition ([5]; strain EOE 23): 22 mm
- Zone of inhibition ([5]; strain EOE 30): 20 mm
- Zone of inhibition ([5]; strain EOE 35): 18 mm
- Zone of inhibition ([5]; strain EOE 41): 20 mm
- Zone of inhibition ([5]; strain EOE 42): 22 mm
- Zone of inhibition ([5]; strain EOE 45): 26 mm
- Zone of inhibition ([5]; strain EOE 52): 22 mm
- Zone of inhibition ([5]; strain EOE 54): 16 mm
- Zone of inhibition ([5]; strain EOE 57): 18 mm
- Zone of inhibition ([5]; strain MRSA 252): 20 mm
- Zone of inhibition ([5]; strain S139_7_7): 16 mm
- Zone of inhibition ([5]; strain S197_1_1): 22 mm
- Zone of inhibition ([5]; strain S197_1_8): 24 mm
- Zone of inhibition ([5]; strain S197_1_9): 26 mm
- Zone of inhibition ([5]; strain S197_1_10): 22 mm
- Zone of inhibition ([5]; strain S295_1_1): 20 mm
- Zone of inhibition ([5]; strain S295_1_2): 20 mm
- Zone of inhibition ([5]; strain S295_1_3): 20 mm
- Zone of inhibition ([5]; strain S364_5_11): 22 mm
- Zone of inhibition ([5]; strain S364_5_12): 20 mm
- Zone of inhibition ([5]; strain Sa_TPS 3026): 20 mm
- Zone of inhibition ([5]; strain Sa_TPS 3072): 22 mm
- Zone of inhibition ([5]; strain Sa_TPS 3092): 24 mm
- Zone of inhibition ([5]; strain Sa_TPS 3097): 24 mm
- Zone of inhibition ([5]; strain Sa_TPS 3103): 22 mm
- Zone of inhibition ([5]; strain Sa_TPS 3104): 20 mm
- Zone of inhibition ([5]; strain Sa_TPS 3106): 26 mm
- Zone of inhibition ([5]; strain Sa_TPS 3118): 18 mm
- Zone of inhibition ([5]; strain Sa_TPS 3133): 18 mm
- Zone of inhibition ([5]; strain Sa_TPS 3134): 18 mm
- Zone of inhibition ([5]; strain USFL 008): 14 mm
- Zone of inhibition ([5]; strain USFL 009): 14 mm
- Zone of inhibition ([5]; strain USFL 012): 16 mm
- Zone of inhibition ([5]; strain USFL 016): 18 mm
- Zone of inhibition ([5]; strain USFL 018): 18 mm
- Zone of inhibition ([5]; strain USFL 020): 16 mm
- Zone of inhibition ([5]; strain USFL 021): 16 mm
- Zone of inhibition ([5]; strain USFL 028): 15 mm
- Zone of inhibition ([5]; strain USFL 035): 16 mm
- Zone of inhibition ([5]; strain USFL 054): 19 mm
- Zone of inhibition ([5]; strain not given): 18 mm
- Zone of inhibition (Escherichia coli DH5α): 20 mm
- Zone of inhibition [6]: 18 mm
